US6291247A, “Methods of screening for factors that disrupt neurotrophin conformation and reduce neurotrophin biological activity” (priority 1996, dated 2001)
Bridges are numbered along the chain shown (N, C = ends).

Assays:
p75^NTR = test: 125I-NT-3 binding to p75NTR; conditions: 100 μM Zn2+, n = 3; 120 min
Protocol: Full length (1-118) mouse NGF purified by HPLC from 2.5S NGF (purity greater than 95%) was obtained from Cedarlane Laboratories (Toronto, Ont). The iodination of NGF was performed as previously described (Sutter, A, Riopelle, R. J., Harris-Warrick, R. M. & Shooter, E. M. Nerve growth factor receptors. J. Biol. Chem. 254, 5972-5982 (1979)). […] PC12 cells were grown in RPMI with 10% heat inactivated donor horse serum and 5% fetal calf serum. Each data point was set up in a single tube containing ^125 I-NGF (at the required concentration), 400,000 cells (for a final call concentration of 10^6 /ml), BDNF (at 40 nM for TrkA binding) and NGF (at 10 nM for non-specific binding) as required. The tubes were incubated for 2 hr at 4° C. and 100 μl aliquots (providing triplicate data points for each sample) were transferred to 400 μl microcentrifuges containing 200 μl of 10% glycerol in HKR. Tubes were centrifuged for 2 minutes at 5,000 rpm, the tip containing the cell pellet cut off and radioactivity bound to the cells was determined.
Human recombinant BDNF and human recombinant NT-3 were obtained from Alomone Laboratories (Israel). The iodination, crosslinking, and binding experiments using BDNF and NT-3 were performed using the methods described above for NGF. Neurite outgrowth assays were performed as described in the presence of 4.0 nM NT-3 or 8.0 nM BDNF.

TrkA = test system: T1, TrkA; test: Binding of 125I-NGF to TrkA on PC12 cells (p75NTR blocked with BDNF); design: species or system rat; conditions: 100 μM; in presence of 40 nM BDNF; ± SEM; 120 min
T1 construct: Receptor cross-linking studies were performed on PC12 rat pheochromocytoma cells; endogenous in cells; host or cells: PC12 rat pheochromocytoma cells (ATCC CRL 1721)
T1 sequence (P01139 122-239): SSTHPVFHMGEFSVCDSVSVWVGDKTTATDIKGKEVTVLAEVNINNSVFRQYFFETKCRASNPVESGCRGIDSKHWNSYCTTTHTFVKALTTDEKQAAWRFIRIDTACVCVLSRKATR
Protocol: PC12 cells were grown in RPMI with 10% heat inactivated donor horse serum and 5% fetal calf serum. […] The tubes were incubated for 2 hr at 4° C. and 100 μl aliquots (providing triplicate data points for each sample) were transferred to 400 μl microcentrifuges containing 200 μl of 10% glycerol in HKR. Tubes were centrifuged for 2 minutes at 5,000 rpm, the tip containing the cell pellet cut off and radioactivity bound to the cells was determined.

NT-3 = conditions: Rashid et al. 1995; cited from earlier work
[1] = test system: kindling-induced seizures; conditions: kindling animal model of epilepsy (Rashid et al. 1995); cited from earlier work
p75 = test: Affinity cross-linking of 125I-NGF to p75 on PC12 cells; assay type: binding, rat; conditions: for Inhibition of p75 Interaction: 0.1 nM 125I-NGF, PC12 cells
Protocol: The ability of the peptides under study to interfere with binding of NGF to NGF receptors was evaluated by analysis of inhibition of the chemical cross-linking of ^251 I-NGF to the common neurotrophin receptor p75 (Chao, J. Neurobiol. 25:1373-1385 (1994)) and the specific NGF receptor TrkA (Barbacid, J. Neurobiol. 25: 1386-1403 (1994)). Immunoprecipitation and polyacrylamide gel electrphoresis of cross linked receptors allowed identification of both receptors, as shown in FIG. 7A. […] At concentrations of 200 μM, neither R11(l) nor R11(m) were able to inhibit greater than 50% of the observed ^125 I-labelling.
The ability of the peptides derived from the 68-58/108-110 region of NGF to antagonize NGF interaction with the p75 and TrkA receptors was determined The peptides tested were bicyclic (BC) 68-58/108-110, cyclic (C) 68-58/108-110, and linear (L) 68-58/108-110, each of which are illustrated in FIGS. 2 and 5D
Receptor cross-linking studies were performed on PC12 rat pheochromocytoma cells (ATCC CRL 1721; Greene et al., Proc. Natl. Acad. Sci. USA 73: 2424-2432 (1976)) which were maintained in RPMI1640 (Gibco) supplemented with 10% fetal calf serum (Gibco). Cells were harvested by incubation and trituration in Ca^2+ and Mg^2+ free Gey's balanced salt solution, washed and suspended in 10 mM HEPES buffer (pH 7.35) containing 125 mM NaCl, 4.8 mM KCl, 1.3 mM CaCl2, […], 1.2 mM KH2 PO4, 1 g/L sucrose and 1 g/L bovine serum albumin (HEPES Krebs Ringer buffer, HKR buffer) at 10^6 cells/mL. Subsequent procedures were carried out at 4° C. unless otherwise noted.
For receptor crosslinking, ^125 I-NGF was prepared by the method of Sutter et al. (J. Biol. Chem. 254: 5972-5982 (1979)) from NGF isolated from mouse submaxillary gland (as described in Mobley et al., Biochemistry 15:1543 (1976)) obtained from Cedarlane.
[…] Control PC12 cells were incubated in HKR buffer in the presence of ^125 I-NGF only (no NGF peptide).
Receptor proteins were cross-linked with either 0.4 mM bis(sulfosuccinimidyl)suberate (BS^3, Pierce) for TrkA, or a combination of 2 mM […] (EDC) and 2 mM N-hydroxysulfosuccinimide (S-NHS) for p75^NTR as indicated. All cross-linking agents (from Pierce) were dissolved in water and added in 20 μL aliquots and the reaction allowed to proceed for 30 min at 25° C. On completion of the cross-linking reaction, the cells were washed three times in HKR buffer with BSA at 4° C. to remove excess free radiolabelled ligand and reagents. The cells were solubilized in 100 μL SDS sample buffer Samples were separated on a modified Laemmli discontinues acrylamide gel system (Laemmli, Nature 227:680 (1970)) using 4% SDS-PAGE stacking gel and a gradient urea polyacrylamide separating gel ranging from 4.5% acrylamide/18% urea to 7.5% acrylamide/48% urea. The gels were fixed and processed for autoradiography using -70° C. exposure with Kodak XAR film and manual processing (FIG. 7B).
For positive receptor identification, immunoprecipitation studies were performed. Samples of 10^7 cells in 1 mL HKR buffer were cross-linked under the conditions described above, washed in HKR buffer and solubilized in non-denaturing lysis buffer (1% NP40, 10% glycerol, 1 mM phenylmethylsulfonylfluoride, 10 μg/mL leupeptin and 0.5 mM o-vanadate in Tris-buffered saline) (Kaplan et al., Nature 350:1 158-160 (1991)). The solutions were clarified by centrifugation and immunoprecipitated with either mAb 192 (monoclonal antibody for p75; Cedarlane) or rabbit anti-TrkA, which had been raised against a COOH-terminal peptide of TrkA. The ^125 I-NGF cross-linked receptor-antibody complexes were isolated using 50 μL of a 50% solution of rabbit anti-mouse agarose (Sigma; for mAb 192) or protein A-Sepharose (Pharmcia; for anti-Trk) equilibrated in lysis buffer. Immunoprecipitates were washed three times in lysis buffer and the pellets denatured in SDS reducing sample buffer. […]

BDNF = conditions: Rashid et al. 1995; cited from earlier work

Compound | % Maximum p75NTR binding, 125I-NT-3 (p75^NTR) | steady-state specific binding of 125I-NGF (0.5 nM) to TrkA (TrkA) | Antagonism of NT-3 in vitro (NT-3) | Inhibition of seizure and mossy fiber sprouting [1] | Inhibition of p75 Interaction (p75; 20 μM peptide) | Inhibition of p75 Interaction (p75; 200 μM peptide, listed as BC) | Covalent attachment of 125I-NGF to receptor (p75) (p75; 200 μM, result in words) | Antagonism of BDNF in vitro (BDNF)
[Zn+2] [Zn^2+] | 13.3 ± 9.5 % Maximum binding | 19 ± 15 % Control |  |  |  |  |  | 
NH2 -Cys-Gly-Ser-Glu-Val-Pro-Asn-Ser-Ala-Arg-Cys-Cys-Val-Cys-OH (H-CGSEVPNSARCCVC-OH; disulfide 1-14, 11-12) [R11, bicyclic peptide of NGF residues 68-58/108-110, two disulfide bonds] |  |  | effective antagonist | inhibit both seizure and mossy fiber sprouting | + (indicates less than 50% inhibition) | ++ (indicates greater than 50% inhibition) | effectively prevented the covalent attachment | effective antagonist
